Measured values as given in BindingDB's records for patent US12180185 (Hk Inno.N, 2024).

Molecular target: Tyrosine-protein kinase JAK1 (Homo sapiens, UniProt P23458)
Test: ADP-Glo Kinase assay
Protocol: An inhibitory effect of the inventive compound on JAK was identified as follows.A control material and a test material were prepared through dilution at each concentration by using DMSO. At the same time, ATP (250 uM) and JAK's substrate (JAK1, IRS-1tide 40 ng/mL) were prepared through dilution in kinase buffer (40 mM Tris-HCl pH 7.5, 20 mM MgCl2, 0.5 mg/mL BSA, 50 uM DTT).A test drug for each concentration, the substrate, the ATP and JAK enzymes were mixed in an eppendorf tube, and then subjected to reaction in an incubator at 30° C. for 40 minutes.ADP-GloFigure US12180185-20241231-P00001 reagent included in ADP-Glo™ Kinase Enzyme System (Promega, USA, V9571) was added to each eppendorf tube, and then subjected to reaction in the incubator at 30° C. for 40 minutes.A kinase detection reagent included in the ADP-Glo™ Kinase Enzyme System was inserted into the eppendorf tube, after which luminescence was measured by using Wallac Victor 2TM with an integration time set to 1 second, such that an inhibitory capacity of the test material on JAKs phosphorylation was analyzed. A concentration of the compound, at which JAK enzyme activity inhibition occurs 50% compared to the control group, was determined as IC50 (nM) of an inhibitor.

Tyrosine-protein kinase JAK1, sequence (P23458 whole entry): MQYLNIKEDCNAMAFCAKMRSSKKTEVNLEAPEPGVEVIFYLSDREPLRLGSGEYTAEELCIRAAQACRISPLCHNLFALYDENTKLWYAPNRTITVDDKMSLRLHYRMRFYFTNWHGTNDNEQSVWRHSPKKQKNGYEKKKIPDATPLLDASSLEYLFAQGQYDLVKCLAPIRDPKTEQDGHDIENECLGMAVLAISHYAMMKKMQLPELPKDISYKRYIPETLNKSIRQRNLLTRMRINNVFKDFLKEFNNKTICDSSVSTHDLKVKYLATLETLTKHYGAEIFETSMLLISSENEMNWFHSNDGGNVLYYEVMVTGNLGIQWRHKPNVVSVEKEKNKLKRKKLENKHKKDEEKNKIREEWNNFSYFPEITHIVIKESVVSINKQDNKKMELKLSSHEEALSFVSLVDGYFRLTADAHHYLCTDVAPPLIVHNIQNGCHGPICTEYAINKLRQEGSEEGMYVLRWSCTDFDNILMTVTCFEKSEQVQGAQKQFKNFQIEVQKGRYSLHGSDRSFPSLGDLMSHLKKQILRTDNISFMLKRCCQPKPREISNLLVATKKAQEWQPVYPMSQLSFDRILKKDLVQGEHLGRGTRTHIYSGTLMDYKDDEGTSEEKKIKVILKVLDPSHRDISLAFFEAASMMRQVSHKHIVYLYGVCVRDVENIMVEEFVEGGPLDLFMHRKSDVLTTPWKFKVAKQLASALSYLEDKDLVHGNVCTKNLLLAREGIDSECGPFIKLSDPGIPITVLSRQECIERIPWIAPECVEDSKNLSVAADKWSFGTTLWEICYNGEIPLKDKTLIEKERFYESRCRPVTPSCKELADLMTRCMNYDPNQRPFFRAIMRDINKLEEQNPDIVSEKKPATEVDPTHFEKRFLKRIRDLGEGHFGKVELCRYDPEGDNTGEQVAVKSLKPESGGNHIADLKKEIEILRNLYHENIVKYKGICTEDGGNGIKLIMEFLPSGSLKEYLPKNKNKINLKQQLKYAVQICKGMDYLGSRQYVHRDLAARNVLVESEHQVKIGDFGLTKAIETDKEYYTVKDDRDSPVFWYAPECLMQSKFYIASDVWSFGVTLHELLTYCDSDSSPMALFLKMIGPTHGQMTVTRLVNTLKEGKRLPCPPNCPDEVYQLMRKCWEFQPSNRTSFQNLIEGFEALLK

Work on `CC(C)=C(C#N)C(=O)Nc1cccc2c(-c3ccnc(NC(=O)C4CC4)c3)n[nH]c12` [US12180185, Example 63] yielded an IC50 greater than 1000 nM.
